Source: PMC10797590, “Exploring Rigid and Flexible Scaffolds to Develop Potent Glucuronic Acid Glycodendrimers for Dengue Virus Inhibition” (Bioconjugate Chemistry, 2023)

Experiments:
[1] = biological target: T1, dengue virus envelope protein 2 (DENV2) (Dengue virus type 2, UniProt P29990); assay: SPR binding study of GlcA glycodendrimers on immobilized DENV2 (Biacore 3000, CM4 chip); parameters: species or system dengue virus serotype 2; conditions: for SPR binding response: GD flowed at 100 μM over immobilized DENV2; for Kd: read-out: dissociation constant KD, steady-state analysis of SPR, 1:1 Langmuir model, immobilized DENV2, 25 °C
T1 construct: Dengue virus envelope protein 2 (DENV2) was purchased from the Native Antigen Company; purchased Native Antigen Company
Protocol: In order to evaluate the ability of GDs 4a–f, 9a–c, and 12a–c to interact with dengue virus envelope protein 2 (DENV2), an SPR binding study was carried out.
Compounds 4a–f, 9a–c, and 12a–c were flowed on immobilized DENV2 at a concentration of 100 μM (Figure 1).
Dengue virus envelope protein 2 (DENV2) was purchased from the Native Antigen Company. SPR sensor chips CM4 (carboxymethylated dextran) and other reagents used in SPR experiments were purchased from GE Healthcare. SPR experiments were performed with a Biacore 3000.
SPR experiments were performed at 25 °C with a Biacore 3000 (GE Healthcare). PBST (10 mm phosphate, pH 7.40, 150 mm NaCl, and 0.005% v/v surfactant P20) was used as a running buffer. A solution with the dengue virus serotype 2 protein (DENV2) was adjusted to 20 μg/mL in 10 mM citrate pH 4.00 buffer, and the protein was immobilized in flow cell 1 of a CM4 sensor chip by following the amine coupling method according to the manufacturer’s instructions. Prior to injection over the sensor chip, DENV2 was mixed with a 4-fold molar excess of HS, for 30 min at 4 °C, to protect the GAG-binding domains of the envelope protein. The immobilization response was 2000 RU, and then, the sensor surface was washed with 1 M NaCl to remove the bound HS. Sensor chip flow cell 2 was activated, blocked, and used as a reference surface. Blank samples and concentration series were injected on a CM4 chip at a flow rate of 40 μL/min for 180 s, and dissociation was registered for 180 s.
Initially, compounds 4a–f, 9a–c, and 12a–c were flowed on the immobilized DENV2 at a 100 μM concentration. Then different concentration of GDs (5–125 μM) were flowed on the immobilized DENV2 (compound 12b: 5–125 μM; 12c: 5–150 μM; 9b: 25–250 μM; 4c: 25-250 μM).25–250 μM). Data processing and analysis were carried out with Biaevaluation v.4.1.1 (GE Healthcare).
All signals were blank-subtracted, reference-corrected, and globally adjusted to an adequate kinetic model to obtain binding parameters. […] Instead, a steady-state analysis kinetic analysis was carried out assuming the 1:1 Langmuir model. The value of KA is obtained by fitting a plot of RU in the plateau region against the GD concentration, which generates the following equations. [drawing 1] [drawing 2] [drawing 3] [drawing 4] KD is calculated as the inverse of KA (KD = 1/KA).

DENV2 envelope protein = conditions: SPR, same experimental conditions as current study; cited from earlier work

Compound	SPR binding response [1]	Kd [1]	Kd (DENV2 envelope protein)	fold difference of KD of heparin versus GDs 12b and 12c ([1]; heparin KD 56 nM vs 12b and 12c KD)
O=C(O)[C@H]1O[C@@H](OCCCn2cc(COc3cc(COc4cc(OCc5cc(OCc6cn(CCCO[C@@H]7O[C@H](C(=O)O)[C@@H](O)[C@H](O)[C@H]7O)nn6)cc(OCc6cn(CCCO[C@@H]7O[C@H](C(=O)O)[C@@H](O)[C@H](O)[C@H]7O)nn6)c5)cc(OCc5cc(OCc6cn(CCCO[C@@H]7O[C@H](C(=O)O)[C@@H](O)[C@H](O)[C@H]7O)nn6)cc(OCc6cn(CCCO[C@@H]7O[C@H](C(=O)O)[C@@H](O)[C@H](O)[C@H]7O)nn6)c5)c4)cc(OCc4cn(CCCO[C@@H]5O[C@H](C(=O)O)[C@@H](O)[C@H](O)[C@H]5O)nn4)c3)nn2)[C@H](O)[C@@H](O)[C@@H]1O [4d]	0.3 RU			
O=C(O)[C@H]1O[C@@H](OCCCn2cc(COc3cc4c5cc(OCc6cn(CCCO[C@@H]7O[C@H](C(=O)O)[C@@H](O)[C@H](O)[C@H]7O)nn6)c(OCc6cn(CCCO[C@@H]7O[C@H](C(=O)O)[C@@H](O)[C@H](O)[C@H]7O)nn6)cc5c5cc(OCc6cn(CCCO[C@@H]7O[C@H](C(=O)O)[C@@H](O)[C@H](O)[C@H]7O)nn6)c(OCc6cn(CCCO[C@@H]7O[C@H](C(=O)O)[C@@H](O)[C@H](O)[C@H]7O)nn6)cc5c4cc3OCc3cn(CCCO[C@@H]4O[C@H](C(=O)O)[C@@H](O)[C@H](O)[C@H]4O)nn3)nn2)[C@H](O)[C@@H](O)[C@@H]1O [4e]	0.0 RU			
O=C(O)[C@H]1O[C@@H](OCCCn2cc(COc3cc(COCC(COCc4cc(OCc5cn(CCCO[C@@H]6O[C@H](C(=O)O)[C@@H](O)[C@H](O)[C@H]6O)nn5)cc(OCc5cn(CCCO[C@@H]6O[C@H](C(=O)O)[C@@H](O)[C@H](O)[C@H]6O)nn5)c4)(COCc4cc(OCc5cn(CCCO[C@@H]6O[C@H](C(=O)O)[C@@H](O)[C@H](O)[C@H]6O)nn5)cc(OCc5cn(CCCO[C@@H]6O[C@H](C(=O)O)[C@@H](O)[C@H](O)[C@H]6O)nn5)c4)COCc4cc(OCc5cn(CCCO[C@@H]6O[C@H](C(=O)O)[C@@H](O)[C@H](O)[C@H]6O)nn5)cc(OCc5cn(CCCO[C@@H]6O[C@H](C(=O)O)[C@@H](O)[C@H](O)[C@H]6O)nn5)c4)cc(OCc4cn(CCCO[C@@H]5O[C@H](C(=O)O)[C@@H](O)[C@H](O)[C@H]5O)nn4)c3)nn2)[C@H](O)[C@@H](O)[C@@H]1O [12c]	153 RU	624 nM		
heparin [reference compound]			56 nM	8.6–11 fold
O=C(O)[C@H]1O[C@@H](OCCCn2cc(COc3cc(COCCN(CCOCc4cc(OCc5cn(CCCO[C@@H]6O[C@H](C(=O)O)[C@@H](O)[C@H](O)[C@H]6O)nn5)cc(OCc5cn(CCCO[C@@H]6O[C@H](C(=O)O)[C@@H](O)[C@H](O)[C@H]6O)nn5)c4)CCOCc4cc(OCc5cn(CCCO[C@@H]6O[C@H](C(=O)O)[C@@H](O)[C@H](O)[C@H]6O)nn5)cc(OCc5cn(CCCO[C@@H]6O[C@H](C(=O)O)[C@@H](O)[C@H](O)[C@H]6O)nn5)c4)cc(OCc4cn(CCCO[C@@H]5O[C@H](C(=O)O)[C@@H](O)[C@H](O)[C@H]5O)nn4)c3)nn2)[C@H](O)[C@@H](O)[C@@H]1O [12b]	203.4 RU	487 nM		
O=C(O)[C@H]1O[C@@H](OCCCn2cc(COc3cc(OCc4cn(CCCO[C@@H]5O[C@H](C(=O)O)[C@@H](O)[C@H](O)[C@H]5O)nn4)cc(OCc4cn(CCCO[C@@H]5O[C@H](C(=O)O)[C@@H](O)[C@H](O)[C@H]5O)nn4)c3)nn2)[C@H](O)[C@@H](O)[C@@H]1O [4c]	60.8 RU			
O=C(O)[C@H]1O[C@@H](OCCCn2cc(COc3cc(COCc4cc(OCc5cn(CCCO[C@@H]6O[C@H](C(=O)O)[C@@H](O)[C@H](O)[C@H]6O)nn5)cc(OCc5cn(CCCO[C@@H]6O[C@H](C(=O)O)[C@@H](O)[C@H](O)[C@H]6O)nn5)c4)cc(OCc4cn(CCCO[C@@H]5O[C@H](C(=O)O)[C@@H](O)[C@H](O)[C@H]5O)nn4)c3)nn2)[C@H](O)[C@@H](O)[C@@H]1O [9a]	5.0 RU			
O=C(O)[C@H]1O[C@@H](OCCCn2cc(COc3cc(COc4cc(COCc5cc(OCc6cc(OCc7cn(CCCO[C@@H]8O[C@H](C(=O)O)[C@@H](O)[C@H](O)[C@H]8O)nn7)cc(OCc7cn(CCCO[C@@H]8O[C@H](C(=O)O)[C@@H](O)[C@H](O)[C@H]8O)nn7)c6)cc(OCc6cc(OCc7cn(CCCO[C@@H]8O[C@H](C(=O)O)[C@@H](O)[C@H](O)[C@H]8O)nn7)cc(OCc7cn(CCCO[C@@H]8O[C@H](C(=O)O)[C@@H](O)[C@H](O)[C@H]8O)nn7)c6)c5)cc(OCc5cc(OCc6cn(CCCO[C@@H]7O[C@H](C(=O)O)[C@@H](O)[C@H](O)[C@H]7O)nn6)cc(OCc6cn(CCCO[C@@H]7O[C@H](C(=O)O)[C@@H](O)[C@H](O)[C@H]7O)nn6)c5)c4)cc(OCc4cn(CCCO[C@@H]5O[C@H](C(=O)O)[C@@H](O)[C@H](O)[C@H]5O)nn4)c3)nn2)[C@H](O)[C@@H](O)[C@@H]1O [9c]	0.0 RU			
O=C(O)[C@H]1O[C@@H](OCCCn2cc(COc3cc(COCc4cc(OCc5cn(CCCO[C@@H]6O[C@H](C(=O)O)[C@@H](O)[C@H](O)[C@H]6O)nn5)c(OCc5cn(CCCO[C@@H]6O[C@H](C(=O)O)[C@@H](O)[C@H](O)[C@H]6O)nn5)c(OCc5cn(CCCO[C@@H]6O[C@H](C(=O)O)[C@@H](O)[C@H](O)[C@H]6O)nn5)c4)cc(OCc4cn(CCCO[C@@H]5O[C@H](C(=O)O)[C@@H](O)[C@H](O)[C@H]5O)nn4)c3OCc3cn(CCCO[C@@H]4O[C@H](C(=O)O)[C@@H](O)[C@H](O)[C@H]4O)nn3)nn2)[C@H](O)[C@@H](O)[C@@H]1O [9b]	68.5 RU	1750 nM		
O=C(O)[C@H]1O[C@@H](OCCCn2cc(CN(Cc3cn(CCCO[C@@H]4O[C@H](C(=O)O)[C@@H](O)[C@H](O)[C@H]4O)nn3)Cc3cn(CCCO[C@@H]4O[C@H](C(=O)O)[C@@H](O)[C@H](O)[C@H]4O)nn3)nn2)[C@H](O)[C@@H](O)[C@@H]1O [12a]	9.8 RU			
